# Laboratory results as given in ChEMBL document CHEMBL1144238, “Identification and SAR around N-{2-[4-(2,3-dihydro-benzo[1,4]dioxin-2-ylmethyl)-[1,4]diazepan-1-yl]-ethyl}-2-phenoxy-nicotinamide, a selective alpha2C adrenergic receptor antagonist” (Bioorg Med Chem Lett, 2008).
# Legend:
# [1] = target: Alpha-2C adrenergic receptor (Rattus norvegicus) (UniProt P22086); test: Binding affinity to rat adrenergic Alpha-2C receptor by radioligand binding assay
# [2] = tested on: Plasma; test: Drug level in Wistar Kyoto rat plasma at 10 mg/kg, sc; assay type: ADME, organism-based; set-up: dose 10 mg/kg, route subcutaneous; details: in vivo
# [3] = target: Muscarinic acetylcholine receptor M2 (Homo sapiens) (UniProt P08172); test: Binding affinity to human muscarinic M2 receptor
# Sequence of Muscarinic acetylcholine receptor M2 (Homo sapiens) (P08172 whole entry): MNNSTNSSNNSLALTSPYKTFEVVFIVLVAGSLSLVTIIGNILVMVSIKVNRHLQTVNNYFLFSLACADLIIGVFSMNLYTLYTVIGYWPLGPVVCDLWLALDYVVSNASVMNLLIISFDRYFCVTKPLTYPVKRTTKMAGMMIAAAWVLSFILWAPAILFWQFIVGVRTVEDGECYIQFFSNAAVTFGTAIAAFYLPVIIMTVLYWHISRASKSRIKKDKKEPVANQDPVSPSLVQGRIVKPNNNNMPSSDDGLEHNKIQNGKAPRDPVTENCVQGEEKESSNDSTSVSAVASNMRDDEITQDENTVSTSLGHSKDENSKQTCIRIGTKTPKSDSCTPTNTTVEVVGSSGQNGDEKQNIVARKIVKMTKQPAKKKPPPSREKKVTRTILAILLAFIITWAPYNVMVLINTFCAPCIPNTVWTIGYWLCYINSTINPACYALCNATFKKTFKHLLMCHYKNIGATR
# [4] = target: Sodium-dependent noradrenaline transporter (Homo sapiens) (UniProt P23975); test: Binding affinity to human NET
# Sequence of Sodium-dependent noradrenaline transporter (Homo sapiens) (P23975 whole entry): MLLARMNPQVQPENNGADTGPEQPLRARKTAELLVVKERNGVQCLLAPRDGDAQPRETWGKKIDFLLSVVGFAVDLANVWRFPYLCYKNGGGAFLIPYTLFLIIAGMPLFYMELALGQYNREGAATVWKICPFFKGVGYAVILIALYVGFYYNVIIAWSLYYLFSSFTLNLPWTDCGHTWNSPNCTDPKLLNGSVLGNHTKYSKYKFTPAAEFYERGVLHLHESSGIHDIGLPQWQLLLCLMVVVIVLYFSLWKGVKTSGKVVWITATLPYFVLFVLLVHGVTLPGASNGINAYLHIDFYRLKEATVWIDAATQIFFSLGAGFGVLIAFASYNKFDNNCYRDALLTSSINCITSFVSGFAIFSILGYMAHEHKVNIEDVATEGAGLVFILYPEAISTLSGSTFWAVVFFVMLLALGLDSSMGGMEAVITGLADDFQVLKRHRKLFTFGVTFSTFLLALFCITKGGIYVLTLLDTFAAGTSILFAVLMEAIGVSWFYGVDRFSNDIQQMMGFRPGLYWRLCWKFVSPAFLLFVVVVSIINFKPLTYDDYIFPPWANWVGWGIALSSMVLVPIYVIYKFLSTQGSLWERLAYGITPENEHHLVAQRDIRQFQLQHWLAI
# [5] = tested on: Cerebrospinal fluid; test: Drug level in Wistar Kyoto rat cerebro spinal fluid at 10 mg/kg, sc; assay type: ADME, organism-based; set-up: dose 10 mg/kg, route subcutaneous; details: in vivo
# [6] = target: T1, Alpha-2C adrenergic receptor (Homo sapiens, UniProt P18825); test: Antagonist activity at human recombinant adrenergic Alpha-2C receptor expressed in CHO cells assessed as inhibition of NE-induced calcium mobilization by FLIPR; assay type: functional, cell-based
# T1 sequence (P18825 whole entry): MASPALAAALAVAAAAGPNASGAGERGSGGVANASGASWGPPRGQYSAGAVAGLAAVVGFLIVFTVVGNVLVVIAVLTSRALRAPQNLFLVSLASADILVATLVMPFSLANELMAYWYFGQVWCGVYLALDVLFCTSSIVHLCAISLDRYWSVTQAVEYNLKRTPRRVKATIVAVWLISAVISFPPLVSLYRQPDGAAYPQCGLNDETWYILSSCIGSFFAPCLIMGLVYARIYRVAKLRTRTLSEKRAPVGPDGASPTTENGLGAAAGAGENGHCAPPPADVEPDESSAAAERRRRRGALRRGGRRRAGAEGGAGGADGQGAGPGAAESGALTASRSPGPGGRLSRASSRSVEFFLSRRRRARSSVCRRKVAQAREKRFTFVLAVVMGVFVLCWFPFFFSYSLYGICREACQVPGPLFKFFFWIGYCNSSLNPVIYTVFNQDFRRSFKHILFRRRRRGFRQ
# [7] = species on record: Homo sapiens; test: Selectivity human recombinant adrenergic Alpha-2C receptor over human recombinant adrenergic alpha2B receptor by FLIPR
# [8] = target: Alpha-2A adrenergic receptor (Rattus norvegicus) (UniProt P22909); test: Binding affinity to rat adrenergic alpha2A receptor by radioligand binding assay
# [9] = target: 5-hydroxytryptamine receptor 1B (Homo sapiens) (UniProt P28222); test: Binding affinity to human 5HT1B receptor at 10 uM
# Sequence of 5-hydroxytryptamine receptor 1B (Homo sapiens) (P28222 whole entry): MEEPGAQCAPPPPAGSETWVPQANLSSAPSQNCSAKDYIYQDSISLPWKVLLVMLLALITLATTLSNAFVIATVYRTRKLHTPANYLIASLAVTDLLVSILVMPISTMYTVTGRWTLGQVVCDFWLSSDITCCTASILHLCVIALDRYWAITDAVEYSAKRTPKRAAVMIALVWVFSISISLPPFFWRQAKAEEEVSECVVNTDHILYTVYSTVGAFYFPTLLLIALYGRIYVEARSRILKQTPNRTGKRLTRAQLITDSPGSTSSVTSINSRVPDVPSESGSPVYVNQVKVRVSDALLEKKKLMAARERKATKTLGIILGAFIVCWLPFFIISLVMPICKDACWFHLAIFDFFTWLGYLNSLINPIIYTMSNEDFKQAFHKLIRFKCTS
# [10] = target: T2, Alpha-2A adrenergic receptor (Homo sapiens, UniProt P08913); test: Binding affinity at human recombinant adrenergic alpha2A receptor expressed in CHO cells by radioligand binding assay; assay type: cell-based
# T2 sequence (P08913 whole entry): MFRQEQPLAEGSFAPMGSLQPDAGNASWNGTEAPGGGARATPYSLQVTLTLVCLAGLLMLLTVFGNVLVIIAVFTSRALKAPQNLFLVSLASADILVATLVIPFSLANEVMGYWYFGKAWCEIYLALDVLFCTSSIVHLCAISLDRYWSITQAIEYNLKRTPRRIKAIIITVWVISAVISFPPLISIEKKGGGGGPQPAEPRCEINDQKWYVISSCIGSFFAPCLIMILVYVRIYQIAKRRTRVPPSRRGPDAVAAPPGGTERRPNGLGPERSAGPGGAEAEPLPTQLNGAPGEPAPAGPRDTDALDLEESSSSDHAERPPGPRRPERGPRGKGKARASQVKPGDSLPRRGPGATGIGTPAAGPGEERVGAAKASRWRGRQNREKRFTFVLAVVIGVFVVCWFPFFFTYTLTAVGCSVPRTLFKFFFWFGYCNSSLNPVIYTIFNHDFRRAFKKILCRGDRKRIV
# [11] = target: D(4) dopamine receptor (Homo sapiens) (UniProt P21917); test: Binding affinity to human dopamine D4 receptor at 1 uM
# [12] = target: Muscarinic acetylcholine receptor M3 (Homo sapiens) (UniProt P20309); test: Binding affinity to human muscarinic M3 receptor at 10 uM
# Sequence of Muscarinic acetylcholine receptor M3 (Homo sapiens) (P20309 whole entry, looked up): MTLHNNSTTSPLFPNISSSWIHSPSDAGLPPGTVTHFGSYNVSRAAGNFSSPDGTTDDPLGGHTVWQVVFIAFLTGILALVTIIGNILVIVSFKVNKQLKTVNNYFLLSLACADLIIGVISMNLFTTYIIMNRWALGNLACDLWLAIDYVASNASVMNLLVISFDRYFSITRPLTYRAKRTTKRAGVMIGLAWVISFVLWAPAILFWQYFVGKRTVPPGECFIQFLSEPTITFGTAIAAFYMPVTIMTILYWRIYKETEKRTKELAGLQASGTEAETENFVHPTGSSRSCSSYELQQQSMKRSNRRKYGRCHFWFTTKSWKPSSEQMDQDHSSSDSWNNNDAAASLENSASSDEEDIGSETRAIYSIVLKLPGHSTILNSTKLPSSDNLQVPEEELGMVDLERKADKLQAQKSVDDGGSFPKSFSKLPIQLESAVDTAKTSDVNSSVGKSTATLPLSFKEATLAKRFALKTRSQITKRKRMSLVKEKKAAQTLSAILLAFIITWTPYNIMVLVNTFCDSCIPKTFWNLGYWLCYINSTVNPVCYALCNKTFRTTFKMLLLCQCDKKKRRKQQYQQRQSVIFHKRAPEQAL
# [13] = tested on: Cerebrospinal fluid; test: Drug level in Wistar Kyoto rat cerebro spinal fluid at 30 mg/kg, sc; assay type: ADME, organism-based; set-up: dose 30 mg/kg, route subcutaneous; details: in vivo
# [14] = target: 5-hydroxytryptamine receptor 7 (Homo sapiens) (UniProt P34969); test: Binding affinity to human 5HT7 receptor
# [15] = target: T3, Alpha-2B adrenergic receptor (Homo sapiens, UniProt P18089); test: Antagonist activity at human recombinant adrenergic alpha2B receptor expressed in CHO cells assessed as inhibition of NE-induced calcium mobilization by FLIPR; assay type: functional, cell-based
# T3 sequence (P18089 whole entry): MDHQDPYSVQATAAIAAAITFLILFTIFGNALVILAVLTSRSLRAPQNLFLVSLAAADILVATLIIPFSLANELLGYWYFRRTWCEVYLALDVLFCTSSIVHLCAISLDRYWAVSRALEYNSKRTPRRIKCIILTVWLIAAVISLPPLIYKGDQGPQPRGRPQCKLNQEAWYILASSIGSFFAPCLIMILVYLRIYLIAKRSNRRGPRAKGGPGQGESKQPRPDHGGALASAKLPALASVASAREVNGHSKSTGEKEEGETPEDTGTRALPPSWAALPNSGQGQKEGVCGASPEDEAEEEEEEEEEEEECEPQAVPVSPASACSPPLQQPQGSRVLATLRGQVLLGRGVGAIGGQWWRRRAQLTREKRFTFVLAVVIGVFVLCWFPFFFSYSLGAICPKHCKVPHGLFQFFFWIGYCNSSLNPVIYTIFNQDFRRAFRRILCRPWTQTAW
# [16] = target: Histamine H2 receptor (Homo sapiens) (UniProt P25021); test: Binding affinity to human histamine H2 receptor
# [17] = target: T3, Alpha-2B adrenergic receptor; test: Binding affinity at human recombinant adrenergic alpha2B receptor expressed in CHO cells by radioligand binding assay; assay type: cell-based
# [18] = tested on: Cerebrospinal fluid; test: Drug level in Wistar Kyoto rat cerebro spinal fluid at 3 mg/kg, sc; assay type: ADME, organism-based; set-up: dose 3 mg/kg, route subcutaneous; details: in vivo
# [19] = target: D(3) dopamine receptor (Homo sapiens) (UniProt P35462); test: Binding affinity to human dopamine D3 receptor
# Sequence of D(3) dopamine receptor (Homo sapiens) (P35462 whole entry): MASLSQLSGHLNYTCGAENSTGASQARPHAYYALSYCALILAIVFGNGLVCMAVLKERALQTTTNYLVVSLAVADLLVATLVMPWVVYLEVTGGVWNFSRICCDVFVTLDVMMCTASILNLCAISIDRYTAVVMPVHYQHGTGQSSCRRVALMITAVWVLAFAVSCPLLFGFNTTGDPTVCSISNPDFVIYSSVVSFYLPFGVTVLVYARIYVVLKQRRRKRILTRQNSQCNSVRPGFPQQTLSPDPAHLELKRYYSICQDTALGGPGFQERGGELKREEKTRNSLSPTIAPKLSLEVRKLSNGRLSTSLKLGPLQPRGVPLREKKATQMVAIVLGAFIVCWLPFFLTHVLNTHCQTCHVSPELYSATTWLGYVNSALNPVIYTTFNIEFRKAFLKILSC
# [20] = target: Alpha-1A adrenergic receptor (Homo sapiens) (UniProt P35348); test: Binding affinity to human adrenergic alpha1A receptor
# Sequence of Alpha-1A adrenergic receptor (Homo sapiens) (P35348 whole entry): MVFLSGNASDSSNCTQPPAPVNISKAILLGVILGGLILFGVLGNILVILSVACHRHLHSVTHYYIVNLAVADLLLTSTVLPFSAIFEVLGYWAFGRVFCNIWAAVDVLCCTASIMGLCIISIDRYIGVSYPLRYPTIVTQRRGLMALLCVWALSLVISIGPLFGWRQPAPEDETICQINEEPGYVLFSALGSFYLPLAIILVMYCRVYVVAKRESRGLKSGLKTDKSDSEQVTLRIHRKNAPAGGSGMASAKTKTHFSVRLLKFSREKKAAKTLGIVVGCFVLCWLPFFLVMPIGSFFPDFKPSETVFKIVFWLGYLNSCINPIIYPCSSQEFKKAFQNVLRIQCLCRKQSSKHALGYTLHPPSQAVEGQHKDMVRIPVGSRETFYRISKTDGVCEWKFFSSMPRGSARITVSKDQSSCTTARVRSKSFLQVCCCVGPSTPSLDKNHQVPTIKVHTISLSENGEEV
# [21] = target: T1, Alpha-2C adrenergic receptor; test: Binding affinity at human recombinant adrenergic Alpha-2C receptor expressed in CHO cells by radioligand binding assay; assay type: cell-based
# [22] = tested on: Brain; test: Drug level in Wistar Kyoto rat brain at 30 mg/kg, sc; assay type: ADME, organism-based; set-up: dose 30 mg/kg, route subcutaneous; details: in vivo
# [23] = species on record: Homo sapiens; test: Selectivity for human recombinant adrenergic Alpha-2C receptor over human recombinant adrenergic alpha2A receptor by radioligand binding assay
# [24] = target: 5-hydroxytryptamine receptor 1A (Homo sapiens) (UniProt P08908); test: Binding affinity to human 5HT1A receptor
# [25] = target: 5-hydroxytryptamine receptor 2B (Homo sapiens) (UniProt P41595); test: Binding affinity to human 5HT2B receptor
# [26] = tested on: Plasma; test: Drug level in Wistar Kyoto rat plasma at 3 mg/kg, sc; assay type: ADME, organism-based; set-up: dose 3 mg/kg, route subcutaneous; details: in vivo
# [27] = species on record: Homo sapiens; test: Selectivity for human recombinant adrenergic Alpha-2C receptor over human recombinant adrenergic alpha2B receptor by radioligand binding assay
# [28] = tested on: Plasma; test: Drug level in Wistar Kyoto rat plasma at 30 mg/kg, sc; assay type: ADME, organism-based; set-up: dose 30 mg/kg, route subcutaneous; details: in vivo
# [29] = target: Sodium-dependent dopamine transporter (Homo sapiens) (UniProt Q01959); test: Binding affinity to human DAT
# [30] = target: 5-hydroxytryptamine receptor 2A (Homo sapiens) (UniProt P28223); test: Binding affinity to human 5HT2A receptor
# Sequence of 5-hydroxytryptamine receptor 2A (Homo sapiens) (P28223 whole entry): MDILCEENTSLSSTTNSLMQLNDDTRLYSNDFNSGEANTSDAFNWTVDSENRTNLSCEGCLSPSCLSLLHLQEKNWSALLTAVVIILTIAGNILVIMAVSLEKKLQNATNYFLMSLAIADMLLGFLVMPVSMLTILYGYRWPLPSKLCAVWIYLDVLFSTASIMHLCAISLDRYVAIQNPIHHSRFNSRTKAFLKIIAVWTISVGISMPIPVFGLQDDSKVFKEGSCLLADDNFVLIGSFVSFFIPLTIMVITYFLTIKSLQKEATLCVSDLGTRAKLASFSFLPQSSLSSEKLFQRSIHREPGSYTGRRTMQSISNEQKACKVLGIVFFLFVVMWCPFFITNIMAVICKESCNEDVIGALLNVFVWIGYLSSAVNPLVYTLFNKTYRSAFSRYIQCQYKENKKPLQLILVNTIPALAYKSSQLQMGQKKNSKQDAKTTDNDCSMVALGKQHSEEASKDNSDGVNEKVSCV
# [31] = species on record: Homo sapiens; test: Selectivity human recombinant adrenergic Alpha-2C receptor over human recombinant adrenergic alpha2A receptor by FLIPR
# [32] = target: Histamine H1 receptor (Homo sapiens) (UniProt P35367); test: Binding affinity to human histamine H1 receptor 1 uM
# [33] = tested on: Brain; test: Drug level in Wistar Kyoto rat brain at 10 mg/kg, sc; assay type: ADME, organism-based; set-up: dose 10 mg/kg, route subcutaneous; details: in vivo
# [34] = target: T2, Alpha-2A adrenergic receptor; test: Antagonist activity at human recombinant adrenergic alpha2A receptor expressed in CHO cells assessed as inhibition of NE-induced calcium mobilization by FLIPR; assay type: functional, cell-based
# [35] = target: Alpha-2B adrenergic receptor (Rattus norvegicus) (UniProt P19328); test: Binding affinity to rat adrenergic alpha2B receptor by radioligand binding assay
# [36] = target: Sodium-dependent serotonin transporter (Homo sapiens) (UniProt P31645); test: Binding affinity to human SERT
# Sequence of Sodium-dependent serotonin transporter (Homo sapiens) (P31645 whole entry, looked up): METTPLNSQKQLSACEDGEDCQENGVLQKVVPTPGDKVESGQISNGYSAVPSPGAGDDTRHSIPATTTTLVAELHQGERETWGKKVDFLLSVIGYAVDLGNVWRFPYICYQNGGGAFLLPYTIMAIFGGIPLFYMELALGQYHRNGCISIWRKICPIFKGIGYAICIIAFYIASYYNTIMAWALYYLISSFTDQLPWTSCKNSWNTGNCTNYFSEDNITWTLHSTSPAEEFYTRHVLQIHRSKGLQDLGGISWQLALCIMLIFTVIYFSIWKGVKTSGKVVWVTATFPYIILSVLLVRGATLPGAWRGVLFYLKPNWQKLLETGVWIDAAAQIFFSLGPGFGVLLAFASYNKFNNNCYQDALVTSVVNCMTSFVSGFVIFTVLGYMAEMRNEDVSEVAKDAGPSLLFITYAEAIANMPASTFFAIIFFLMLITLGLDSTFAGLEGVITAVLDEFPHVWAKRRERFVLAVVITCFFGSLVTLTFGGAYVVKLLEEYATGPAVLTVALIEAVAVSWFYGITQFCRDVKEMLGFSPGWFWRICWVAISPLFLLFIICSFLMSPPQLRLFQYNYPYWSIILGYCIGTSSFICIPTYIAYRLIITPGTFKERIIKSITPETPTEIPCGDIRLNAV
# [37] = target: D(2) dopamine receptor (Homo sapiens) (UniProt P14416); test: Binding affinity to human dopamine D2 receptor
# [38] = tested on: Brain; test: Drug level in Wistar Kyoto rat brain at 3 mg/kg, sc; assay type: ADME, organism-based; set-up: dose 3 mg/kg, route subcutaneous; details: in vivo
# [39] = target: Muscarinic acetylcholine receptor M1 (Homo sapiens) (UniProt P11229); test: Binding affinity to human muscarinic M1 receptor at 10 uM
# Sequence of Muscarinic acetylcholine receptor M1 (Homo sapiens) (P11229 whole entry): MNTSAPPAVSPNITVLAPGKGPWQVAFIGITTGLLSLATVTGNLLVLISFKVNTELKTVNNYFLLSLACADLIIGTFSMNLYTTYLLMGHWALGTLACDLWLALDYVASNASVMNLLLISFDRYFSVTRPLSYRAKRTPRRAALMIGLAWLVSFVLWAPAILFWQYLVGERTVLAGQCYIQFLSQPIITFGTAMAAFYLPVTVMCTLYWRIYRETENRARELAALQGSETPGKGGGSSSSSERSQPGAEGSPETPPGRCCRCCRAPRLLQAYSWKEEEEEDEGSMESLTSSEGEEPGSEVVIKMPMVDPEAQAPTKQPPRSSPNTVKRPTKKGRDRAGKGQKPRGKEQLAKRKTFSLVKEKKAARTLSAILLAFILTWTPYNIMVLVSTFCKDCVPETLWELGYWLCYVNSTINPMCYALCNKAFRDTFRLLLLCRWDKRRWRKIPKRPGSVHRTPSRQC
# Sequence of Alpha-2C adrenergic receptor (Rattus norvegicus) (P22086 whole entry): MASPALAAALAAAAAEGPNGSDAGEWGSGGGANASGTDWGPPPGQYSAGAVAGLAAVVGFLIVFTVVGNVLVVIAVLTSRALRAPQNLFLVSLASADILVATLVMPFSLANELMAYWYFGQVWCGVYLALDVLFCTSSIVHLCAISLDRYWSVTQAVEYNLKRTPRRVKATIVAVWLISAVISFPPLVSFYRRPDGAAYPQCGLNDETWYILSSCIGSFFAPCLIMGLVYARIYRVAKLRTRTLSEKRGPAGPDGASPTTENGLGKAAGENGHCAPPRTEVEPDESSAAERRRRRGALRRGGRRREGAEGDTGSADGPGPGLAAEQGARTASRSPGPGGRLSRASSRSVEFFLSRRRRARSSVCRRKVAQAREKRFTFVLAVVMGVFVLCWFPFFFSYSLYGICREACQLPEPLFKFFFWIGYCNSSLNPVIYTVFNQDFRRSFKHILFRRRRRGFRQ
structure (smiles),measurement,setting,value
O=C(NCCN1CCCN(C[C@H]2COc3ccccc3O2)CC1)c1cccnc1Oc1ccccc1,Activity,[1],1.7 nM
same,Cp,[2],2100 ng/mL
same,Activity,[3],1600 nM
same,Activity,[4],1790 nM
same,Drug uptake,[5],26.9 ng/mL
same,Ki,[6],1.9 nM
same,Ratio Ki,[7],16
same,Activity,[8],177 nM
same,Activity,[9],44%
same,Ki,[10],94.4 nM
same,Activity,[11],10%
same,Activity,[12],27%
same,Drug uptake,[13],113 ng/mL
same,Activity,[14],530 nM
same,Ki,[15],31.3 nM
same,Activity,[16],1900 nM
same,Ki,[17],14.3 nM
same,Drug uptake,[18],7.39 ng/mL
same,Activity,[19],75 nM
same,Activity,[20],59 nM
same,Ki,[21],0.9 nM
same,Drug uptake,[22],2230 ngequiv/g
same,Ratio Ki,[23],106
same,Activity,[24],141 nM
same,Activity,[25],690 nM
same,Cp,[26],744 ng/mL
same,Ratio Ki,[27],16
same,Cp,[28],6190 ng/mL
same,Activity,[29],3.48 µM
same,Activity,[30],2400 nM
same,Ratio Ki,[31],> 232
same,Activity,[32],33%
same,Drug uptake,[33],630 ngequiv/g
same,Ki,[34],> 442 nM
same,Activity,[35],7.6 nM
same,Activity,[36],1480 nM
same,Activity,[37],820 nM
same,Drug uptake,[38],173 ngequiv/g
same,Activity,[39],4%
